Measured values reported in patent US12648941B2, “Piperidine urea derivatives for use as inotropic agents” (Helsinn Healthcare SA, priority 2021, dated 2026).

Tests used:
[1] = target: ghrelin receptor (Homo sapiens, UniProt Q92847); conditions: ghrelin receptor antagonist; Sigma Aldrich; read-out: IC50 for antagonistic activity; cited from earlier work
[2] = tested on: cardiomyocytes isolated from hearts of heart failure (HF) mice; experiment: Cardiomyocyte contractility (fractional shortening, % FS), heart failure (MI) cardiomyocytes; assay type: cell-based, mouse; conditions: antagonist 3 μM before AC01/HM01 1 μM
Protocol: (§1) Cardiomyocytes were isolated freshly from cardiac ventricles separately from SHAM and HF mice following the protocol developed by the Alliance for Cellular Signalling (AfCS Procedure Protocol ID PP00000125). From each of the 5 SHAM and 3 HF hearts a cell suspension was made and divided into 10 aliquots each, for a total of 50 aliquots from SHAM and 30 aliquots from HF hearts. These aliquots were treated with vehicle, AC01/HM01 or D-Lys3-GHPR-6+AC01/HM01 as stated and used for the subsequent physiological and biochemical experiments.
AC01/HM01 was suspended in phosphate buffer saline solution (PBS: in mM: NaCl 137, KCl 7, Na2HPO4 10, KH2PO4 […]) and diluted to obtain 3 different concentrations: 0.2, 0.5 or 1 μM in Tyrode solution. We used a concentration range within 0.2-1 μM to ensure that the receptor was activated. […]
(§2) Line scan fluorescence images were acquired using a confocal microscope (Biorad; 40× oil immersion lenses). […] ImageJ software (open source software developed by NIH, Bethesda, USA) was used to quantify changes in fluorescence (Ca^2+ transients) and contractility of single cardiomyocytes.
(§3) The contractility of cardiomyocytes was measured as the percent of length shortening (fractional shortening; % FS). […]

[3] = tested on: Protein kinase A (PKA); experiment: PKA activity assay in cardiomyocytes (ELISA-based kit); assay type: cell-based, mouse; conditions: isolated cardiomyocytes, pretreatment before AC01/HM01 1 μM
Protocol: (§4) AC01/HM01 was suspended in phosphate buffer saline solution (PBS: in mM: NaCl 137, KCl 7, Na2HPO4 10, KH2PO4 […]) and diluted to obtain 3 different concentrations: 0.2, 0.5 or 1 μM in Tyrode solution. We used a concentration range within 0.2-1 μM to ensure that the receptor was activated. […] Prior to contractility and Ca^2+ signaling measurements and biochemical assays, cardiomyocyte suspensions from SHAM and HF hearts were randomized to 3 types of treatments: vehicle, AC01/HM01, or D-Lys3-GHPR-6+AC01/HM01. The treatment with different agents occurred for 15 minutes at room temperature. Some cell suspension aliquots were flash frozen in liquid N2 and stored at −80° C. for later biochemistry analyses. All the experiments were conducted blinded regarding the treatment of cardiomyocytes.
Elisa-based PKA kinase activity assay kit (ab139435, Abcam, Cambridge, UK) was employed to determine PKA activity in cardiomyocytes. Aliquots of frozen cardiomyocytes were thawed and mixed with a lysis buffer containing (mM) the following: 20 MOPS, 50 β-glycerolphosphate, 5 EGTA, 2 EDTA, 1 benzamidine, 1 sodium orthovanadate, 1% NP40, 1 DTT, complete protease inhibitor cocktail (Roche Diagnostics, West Sussex, UK) and phosphatase inhibitor cocktail 3 (Sigma, Gillingham, UK). Approximately 2 μg of protein of each sample were assayed according to the manufacturer's instructions 27.

[4] = tested on: cardiomyocytes isolated from hearts of SHAM mice; experiment: Cardiomyocyte contractility (fractional shortening, % FS), SHAM cardiomyocytes; assay type: cell-based, mouse; conditions: antagonist 3 μM before AC01/HM01 1 μM
Protocol: as §1, §4
Fresh isolated cardiomyocytes were aliquoted in 1.5 mL tubes and incubated with a cell permeable form of the fluorescent Ca^2+ indicator Fluo-3 AM for approximately 20 minutes followed by washing for >5 min. The cells were plated on laminin coated glass bottom dishes (35 mm, Mattek, Ashland, MA, USA), and then mounted in a custom built perfusion/stimulation chamber. Cells were continuously perfused with O2/CO2 (95/5%) bubbled Tyrode solution with the following composition (in mM): NaCl 121, KCl 5.0, CaCl2 1.8, MgCl2 0.5, NaH2PO4 0.4, NaHCO3 24, EDTA 0.1, glucose 5.5, which represents the vehicle solution.
15 aliquots of cardiomyocyte suspension from SHAM and 9 aliquots from HF were randomized to different treatments: vehicle, AC01/HM01 (0.2, 0.5 or 1 μM) or pretreatment with D-Lys3-GHPR-6 (3 μM) followed by AC01/HM01 (1 μM). The cardiomyocytes were electrically stimulated to contract at 1 Hz with supra-threshold voltage using two platinum electrodes attached to the perfusion/stimulation chamber.
as §2, §3

[5] = tested on: phospho (Ser 22-23) cardiac troponin I (cTnl); experiment: Phospho (Ser 22-23) cTnl western blot in cardiomyocytes; assay type: cell-based, mouse; conditions: SHAM cardiomyocytes, antagonist 3 μM before AC01/HM01 1 μM
Protocol: as §4
Aliquots of frozen cardiomyocyte suspensions were lysed using NP40 buffer (Thermo Fisher FNN0021, Stockholm, Sweden) supplemented with phosphatase inhibitors (Sigma-Aldrich P2850-1ML, P5726-1ML, Stockholm, Sweden). Protein lysates were separated by electrophoresis and transferred onto membranes. Membranes were incubated with primary antibody: rabbit anti phospho (Ser 22-23) cardiac troponin I (cTnl, Cell Signalling, Leiden, The Netherlands #4004S) and rabbit anti-cTnl (Cell Signalling #4002S, Leiden, The Netherlands). Thereafter, infrared-labelled secondary antibodies (IRDye 680 and IRDye 800, 1:5000, Licor) were used. Immunoreactive bands were analyzed using the Odyssey Infrared Imaging System (Li-Cor, Bad Homburg, Germany). Band densities were quantified with Image J (NIH, Bethesda, USA), normalized to total cTnl and final data was expressed as fold increase compared to bands representing protein extracted from vehicle treated cells.

Sequence of ghrelin receptor (Q92847 whole entry, species assumed): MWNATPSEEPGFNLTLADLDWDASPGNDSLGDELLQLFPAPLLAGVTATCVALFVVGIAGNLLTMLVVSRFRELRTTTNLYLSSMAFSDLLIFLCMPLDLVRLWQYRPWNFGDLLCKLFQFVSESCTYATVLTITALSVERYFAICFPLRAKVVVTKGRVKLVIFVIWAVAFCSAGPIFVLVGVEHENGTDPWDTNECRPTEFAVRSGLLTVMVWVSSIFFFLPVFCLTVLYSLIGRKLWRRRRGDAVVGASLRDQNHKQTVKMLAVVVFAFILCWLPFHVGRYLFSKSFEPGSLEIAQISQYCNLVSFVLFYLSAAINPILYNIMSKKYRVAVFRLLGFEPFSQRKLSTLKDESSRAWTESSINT

D-Lys 3 GHRP-6 [reference compound]
IC50 [1]: 900 nM | effect of pretreatment on contractile effect of AC01/HM01 [2]: blocked the contractile effect | effect of pretreatment on AC01/HM01-induced change of PKA activity ([3]; listed as D-Lys 3): blocked | effect of pretreatment on AC01/HM01-induced change of PKA activity ([3]; listed as D-Lys 3-GHRP-6): restored the PKA activity to physiologic levels | effect of pretreatment on contractile effect of AC01/HM01 [4]: blocked the contractile effect | effect of pretreatment on AC01/HM01-induced change of cTnl phosphorylation ([5]; listed as D-Lys3): blocked this effect | effect of pretreatment on AC01/HM01-induced change of cTnl phosphorylation ([5]; listed as D-Lys3—GHRP-6): restored the phosphorylation levels of cTnl to physiologic levels
